Results on 15 compounds are retold here after US20220151962A1, “NOVEL INHIBITORS OF HISTONE DEACETYLASE 10” (Deutsches Krebsforschungszentrum, priority 2019, published 2022).

In test [1] the target is T1, HDAC3/NcoR2 complex (Homo sapiens, UniProt O15379).
T1 construct: purchased BPS Bioscience 50003
In words: HDAC-Glo I/II assay, HDAC3/NcoR2 complex. The test is classed as biochemical. To be noted: recombinant human HDAC3/NcoR2 complex; for IC50: read-out: pIC50 HDAC3 Glo (converted).

In test [2] the target is T2, HDAC1 (Homo sapiens, UniProt Q13547).
T2 construct: purchased BPS Bioscience 50051
T2 sequence (Q13547 whole entry): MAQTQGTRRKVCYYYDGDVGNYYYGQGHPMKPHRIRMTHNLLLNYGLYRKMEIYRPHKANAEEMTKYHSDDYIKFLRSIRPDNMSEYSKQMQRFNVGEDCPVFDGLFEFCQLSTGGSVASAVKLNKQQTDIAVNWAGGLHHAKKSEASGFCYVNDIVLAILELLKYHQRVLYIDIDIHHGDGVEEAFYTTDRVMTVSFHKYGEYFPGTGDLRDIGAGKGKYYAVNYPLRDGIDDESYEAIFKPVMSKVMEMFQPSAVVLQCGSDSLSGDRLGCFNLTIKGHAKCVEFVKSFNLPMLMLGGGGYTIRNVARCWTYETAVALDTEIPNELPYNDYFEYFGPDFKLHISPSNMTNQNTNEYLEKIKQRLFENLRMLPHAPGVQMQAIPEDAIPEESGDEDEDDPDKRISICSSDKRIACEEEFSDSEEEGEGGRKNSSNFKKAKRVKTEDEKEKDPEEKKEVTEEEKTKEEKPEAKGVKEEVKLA
In words: HDAC-Glo I/II assay, HDAC1. The test is classed as biochemical. To be noted: recombinant human HDAC1, HDAC-Glo; for IC50: read-out: pIC50 HDAC1 Glo (converted).

Test [3] deals with T3, TwinStrep-GST-HDAC10 (Homo sapiens, UniProt Q969S8).
T3 construct: made in house; host or cells: Sf21 insect cells (baculovirus, pFastBac1)
T3 sequence (Q969S8 1-669): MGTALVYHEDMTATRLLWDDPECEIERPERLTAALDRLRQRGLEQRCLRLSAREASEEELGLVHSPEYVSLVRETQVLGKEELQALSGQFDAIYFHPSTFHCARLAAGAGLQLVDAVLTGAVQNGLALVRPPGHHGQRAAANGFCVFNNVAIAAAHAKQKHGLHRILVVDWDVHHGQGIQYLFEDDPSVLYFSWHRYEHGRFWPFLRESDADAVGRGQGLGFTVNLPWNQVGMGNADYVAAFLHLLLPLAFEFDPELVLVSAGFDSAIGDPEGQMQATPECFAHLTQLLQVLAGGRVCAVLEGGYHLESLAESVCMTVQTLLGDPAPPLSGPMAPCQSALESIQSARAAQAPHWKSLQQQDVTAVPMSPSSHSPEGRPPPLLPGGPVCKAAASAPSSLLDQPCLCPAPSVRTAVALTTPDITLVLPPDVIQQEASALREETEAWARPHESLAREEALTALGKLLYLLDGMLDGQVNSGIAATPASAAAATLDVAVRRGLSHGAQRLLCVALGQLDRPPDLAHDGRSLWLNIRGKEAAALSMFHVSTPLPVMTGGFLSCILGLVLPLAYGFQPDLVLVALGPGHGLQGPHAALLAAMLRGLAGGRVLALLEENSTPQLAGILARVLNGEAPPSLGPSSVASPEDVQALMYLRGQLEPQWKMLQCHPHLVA
Briefly: HDAC10 TR-FRET assay (Tubastatin-AF647-Tracer displacement). Type of test: binding. Conditions: TR-FRET, 60 min at rt; for IC50: read-out: pIC50 HDAC10 FRET (converted).

In test [4] the target is T4, HDAC6 (Homo sapiens, UniProt Q9UBN7).
T4 construct: purchased BPS Bioscience 50006
T4 sequence (Q9UBN7 1-1215): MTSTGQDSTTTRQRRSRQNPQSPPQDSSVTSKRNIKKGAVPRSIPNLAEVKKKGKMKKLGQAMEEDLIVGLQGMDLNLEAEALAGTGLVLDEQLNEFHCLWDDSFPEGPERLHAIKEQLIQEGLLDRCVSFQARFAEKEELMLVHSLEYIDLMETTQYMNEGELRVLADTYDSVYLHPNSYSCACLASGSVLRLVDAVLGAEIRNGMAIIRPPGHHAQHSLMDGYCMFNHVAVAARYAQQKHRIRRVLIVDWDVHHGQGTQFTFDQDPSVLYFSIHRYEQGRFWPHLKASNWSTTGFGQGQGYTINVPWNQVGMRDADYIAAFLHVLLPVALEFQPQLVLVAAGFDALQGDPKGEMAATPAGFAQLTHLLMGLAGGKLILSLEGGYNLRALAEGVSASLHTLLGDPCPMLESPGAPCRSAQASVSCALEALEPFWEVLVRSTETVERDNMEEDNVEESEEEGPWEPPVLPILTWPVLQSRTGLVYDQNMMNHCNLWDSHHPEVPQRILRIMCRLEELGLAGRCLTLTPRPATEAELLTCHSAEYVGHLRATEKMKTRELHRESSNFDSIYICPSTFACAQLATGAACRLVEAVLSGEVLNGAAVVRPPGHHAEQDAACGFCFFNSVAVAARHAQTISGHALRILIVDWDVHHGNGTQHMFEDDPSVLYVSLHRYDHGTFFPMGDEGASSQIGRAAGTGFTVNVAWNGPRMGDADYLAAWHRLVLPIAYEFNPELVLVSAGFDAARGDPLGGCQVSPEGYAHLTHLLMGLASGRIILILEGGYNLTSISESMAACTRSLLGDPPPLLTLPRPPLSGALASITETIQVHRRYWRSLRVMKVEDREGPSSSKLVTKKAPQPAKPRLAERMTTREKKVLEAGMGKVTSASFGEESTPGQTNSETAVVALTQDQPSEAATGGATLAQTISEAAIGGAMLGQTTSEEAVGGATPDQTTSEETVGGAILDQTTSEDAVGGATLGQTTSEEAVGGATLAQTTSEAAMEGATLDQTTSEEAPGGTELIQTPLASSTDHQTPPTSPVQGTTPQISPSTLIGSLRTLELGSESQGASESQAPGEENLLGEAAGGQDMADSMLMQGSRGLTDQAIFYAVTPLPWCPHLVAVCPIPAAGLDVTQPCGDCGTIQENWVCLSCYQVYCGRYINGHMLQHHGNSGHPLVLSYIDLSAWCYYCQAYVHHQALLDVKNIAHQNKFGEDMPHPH
In words: HDAC-Glo I/II assay, HDAC6. Type of test: biochemical. To be noted: recombinant human HDAC6, HDAC-Glo; read-out: pIC50 HDAC6 Glo (converted).

The target of test [5] is T5, HDAC8 (Homo sapiens, UniProt Q9BY41).
T5 sequence (Q9BY41 1-377): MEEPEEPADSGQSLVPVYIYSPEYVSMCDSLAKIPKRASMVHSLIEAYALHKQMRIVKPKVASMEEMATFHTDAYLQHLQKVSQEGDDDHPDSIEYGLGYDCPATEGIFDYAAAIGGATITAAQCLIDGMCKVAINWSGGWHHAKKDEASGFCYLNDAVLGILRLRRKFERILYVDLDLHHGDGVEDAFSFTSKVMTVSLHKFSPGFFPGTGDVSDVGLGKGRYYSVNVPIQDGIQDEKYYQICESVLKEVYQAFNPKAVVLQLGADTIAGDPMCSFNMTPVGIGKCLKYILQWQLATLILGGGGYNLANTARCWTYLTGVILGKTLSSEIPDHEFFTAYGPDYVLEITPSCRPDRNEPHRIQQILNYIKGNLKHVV
In words: HDAC-Glo I/II assay, HDAC8. The test is classed as biochemical. On the set-up: purchased BPS Bioscience 50008. To be noted: recombinant human HDAC8, HDAC-Glo; for IC50: read-out: pIC50 HDAC8 Glo (converted).

For test [6], the target named is T6, HDAC2 (Homo sapiens, UniProt Q92769).
T6 construct: purchased BPS Bioscience 50002
T6 sequence (Q92769 whole entry): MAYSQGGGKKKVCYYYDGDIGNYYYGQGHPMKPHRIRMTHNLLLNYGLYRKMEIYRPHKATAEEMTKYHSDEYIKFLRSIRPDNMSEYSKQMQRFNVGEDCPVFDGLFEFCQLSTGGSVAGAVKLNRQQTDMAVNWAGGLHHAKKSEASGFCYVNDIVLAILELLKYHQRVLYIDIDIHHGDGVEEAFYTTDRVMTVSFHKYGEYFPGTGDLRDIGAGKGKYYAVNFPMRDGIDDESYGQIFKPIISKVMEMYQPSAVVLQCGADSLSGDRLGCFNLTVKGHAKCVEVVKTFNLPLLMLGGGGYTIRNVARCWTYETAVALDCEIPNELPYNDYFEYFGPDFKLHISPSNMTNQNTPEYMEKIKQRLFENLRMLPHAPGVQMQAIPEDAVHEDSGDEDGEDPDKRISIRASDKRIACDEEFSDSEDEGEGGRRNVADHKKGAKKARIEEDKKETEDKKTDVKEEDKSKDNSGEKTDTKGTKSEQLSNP
In words: HDAC-Glo I/II assay, HDAC2. To be noted: recombinant human HDAC2, HDAC-Glo; for IC50: read-out: pIC50 HDAC2 Glo (converted). Type of test: biochemical.

T1 sequence (O15379 whole entry): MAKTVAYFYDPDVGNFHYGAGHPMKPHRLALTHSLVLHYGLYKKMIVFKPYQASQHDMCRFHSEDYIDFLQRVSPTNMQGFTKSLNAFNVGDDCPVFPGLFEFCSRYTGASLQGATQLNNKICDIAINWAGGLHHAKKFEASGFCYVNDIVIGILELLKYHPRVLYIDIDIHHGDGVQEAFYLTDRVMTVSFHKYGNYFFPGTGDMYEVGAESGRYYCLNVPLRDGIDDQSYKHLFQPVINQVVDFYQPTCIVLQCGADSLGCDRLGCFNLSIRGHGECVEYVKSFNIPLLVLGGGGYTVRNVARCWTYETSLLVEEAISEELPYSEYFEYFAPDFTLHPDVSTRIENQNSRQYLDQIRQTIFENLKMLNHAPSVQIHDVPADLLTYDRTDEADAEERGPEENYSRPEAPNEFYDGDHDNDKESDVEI
T1 sequence (Q9Y618 395-489 partner limits assumed): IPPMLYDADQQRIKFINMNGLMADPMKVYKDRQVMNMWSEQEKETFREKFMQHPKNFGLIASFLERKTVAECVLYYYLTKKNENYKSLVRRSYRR

For `CN(CCCC(=O)NO)CCNC(=O)c1ccc2ccccc2c1` [DKFZ-769, N-(2-((4-(Hydroxyamino)-4-oxobutyl)(methyl)amino)ethyl)-2-naphthamide], the IC50 is around 39.8 µM in test [1]; 2.51 µM in test [2]; 0.00501 µM in test [3]; 1.26 µM in test [4]; 1.58 µM in test [5]; 5.01 µM in test [6].
Turning to `CN(CCCC(=O)NO)CCNC(=O)c1ccccc1O` [DKFZ-755, 2-Hydroxy-N-(2-((4-(hydroxyamino)-4-oxobutyl)(methyl)amino)ethyl)benzamide], the IC50 in test [1] was above 100 µM; in test [2] it was 63.1 µM; in test [3] it was 0.0316 µM; in test [4], 12.6 µM; in test [5], 63.1 µM; in test [6], above 100 µM.
`Cc1[nH]c2ccccc2c1C(=O)NCCN(C)CCCC(=O)NO` [DKFZ-756, N-(2-((4-(Hydroxyamino)-4-oxobutyl)(methyl)amino)ethyl)-2-methyl-1H-indole-3-carboxamide]: the IC50 in test [1] was around 79.4 µM; in test [2], 7.94 µM; in test [3] it was 0.02 µM; in test [4], 1.58 µM; in test [5] it was 5.01 µM; in test [6] it was above 100 µM.
For the compound `CN(CCCC(=O)NO)CCNC(=O)c1cccc(N)c1` [DKFZ-747, 3-Amino-N-(2-((4-(hydroxyamino)-4-oxobutyl)(methyl)amino)ethyl)benzamide], the IC50 is above 100 µM in test [1]; 25.1 µM in test [2]; 0.0398 µM in test [3]; 6.31 µM in test [4]; 12.6 µM in test [5]; above 100 µM in test [6].
`CN(CCCC(=O)NO)CCNC(=O)c1ccccc1Br` [DKFZ-753, 2-Bromo-N-(2-((4-(hydroxyamino)-4-oxobutyl)(methyl)amino)ethyl)benzamide]: the IC50 in test [1] was above 100 µM; in test [2] it was 25.1 µM; in test [3] it was 0.0158 µM; in test [4], 6.31 µM; in test [5] it was 7.94 µM; in test [6], above 100 µM.
Turning to `Cc1[nH]c2ccccc2c1CC(=O)NCCN(C)CCCC(=O)NO` [DKFZ-749, N-Hydroxy-4-(methyl(2-(2-(2-methyl-1H-indol-3-yl)acetamido)ethyl)amino)butanamide], the IC50 in test [1] was above 100 µM; in test [2], 10 µM; in test [3], 0.0794 µM; in test [4], 3.16 µM; in test [5] it was 2.51 µM; in test [6] it was above 100 µM.
For the compound `CN(CCCNC(=O)c1ccccc1)CCCC(=O)NO` [DKFZ-806, N-(3-((4-(Hydroxyamino)-4-oxobutyl)(methyl)amino)propyl)benzamide], the IC50 in test [1] was above 100 µM; in test [2] it was 50.1 µM; in test [3], 0.02 µM; in test [4], 25.1 µM; in test [5], 25.1 µM; in test [6] it was 79.4 µM.
Regarding `CN(CCCC(=O)NO)CCNC(=O)c1ccc(O)cc1` [DKFZ-751, 4-Hydroxy-N-(2-((4-(hydroxyamino)-4-oxobutyl)(methyl)amino)ethyl)benzamide], the IC50 in test [1] is above 100 µM; in test [2] it was 15.8 µM; in test [3], 0.00794 µM; in test [4] it was 2 µM; in test [5], 25.1 µM; in test [6], above 100 µM.
On to `CN(CCCC(=O)NO)CCNC(=O)c1ccc2cn[nH]c2c1` [DKFZ-754, N-(2-((4-(Hydroxyamino)-4-oxobutyl)(methyl)amino)ethyl)-1H-indazole-6-carboxamide], for which the IC50 was above 100 µM in test [1]; 7.94 µM in test [2]; 0.00794 µM in test [3]; 3.16 µM in test [4]; 12.6 µM in test [5]; above 100 µM in test [6].
In the case of `CN(CCCC(=O)NO)CCNC(=O)c1ccccc1` [DKFZ-728, N-(2-((4-(Hydroxyamino)-4-oxobutyl)(methyl)amino)ethyl)benzamide], the IC50 in test [1] was above 100 µM; in test [5], 15.8 µM; in test [6] it was 50.1 µM.
On to `CN(CCCC(=O)NO)CCC(=O)Nc1ccccc1` [DKFZ-711], for which the IC50 was 79.4 µM in test [1] and 3.98 µM in test [5].
For the compound `CCN(CCCC(=O)NO)CCC(=O)Nc1ccccc1` [DKFZ-714, 4-(Ethyl(3-oxo-3-(phenylamino)propyl)amino)-N-hydroxybutanamide], the IC50 in test [1] was around 158 µM; in test [2] it was 50.1 µM; in test [4] it was 6.31 µM; in test [5], 5.01 µM; in test [6], above 200 µM.
Turning to `CN(CCCC(=O)NO)CC(=O)Nc1ccccc1` [DKFZ-772, N-Hydroxy-4-(methyl(2-oxo-2-(phenylamino)ethyl)amino)butanamide], the IC50 in test [1] is above 100 µM; in test [2] it was 20 µM; in test [5] it was 2.51 µM; in test [6], 31.6 µM.
With “(1r,3r)-N-Hydroxy-3-((3-oxo-3-(phenylamino)propyl)amino)cyclobutanecarboxamide [DKFZ-759]”, in test [1], the “pIC50 HDAC3 Glo” value is below 4.0. Besides, in test [2], the “pIC50 HDAC1 Glo” value amounted to 4.4. The “pIC50 HDAC10 FRET” value in test [3] is listed as 6.3. Moreover, the “pIC50 HDAC8 Glo” value in test [5] was found to be 4.9. Also, the “pIC50 HDAC2 Glo” value in test [6] is reported as below 4.0.
“(1s,3s)-N-Hydroxy-3-((3-oxo-3-(phenylamino)propyl)amino)cyclobutanecarboxamide [DKFZ-767]”: in test [1], the “pIC50 HDAC3 Glo” value is recorded as around 4.0. In test [2], the “pIC50 HDAC1 Glo” value worked out at 4.9. In addition, in test [3], the “pIC50 HDAC10 FRET” value was determined as 6.9. Besides, in test [5], the “pIC50 HDAC8 Glo” value is on record as 5.1. Further, the “pIC50 HDAC2 Glo” value in test [6] is recorded as 4.6.
